Results as given in US9199963B2, “Heterocyclic compound” (Takeda Pharmaceutical Company Limited, priority 2013, dated 2015).

Tests used:
human MCHR1 = biological target: T1, human MCHR1 (Homo sapiens, UniProt Q99705); assay: MCH receptor 1 antagonistic activity using Ca2+ mobilization assay; assay type: cell-based; settings: test compound 0.1 μM; ligand MCH (4-19) 2 nM; human MCHR1-expressing CHO cells (clone #4); read-out: Inhibition rate % (0.1 μM)
T1 construct: expressed in transfected cells; host or cells: CHO dhfr- cells, clone #4
Protocol: Measurement of MCH Receptor 1 Antagonistic Activity of Test Compound Using Ca^2+ Mobilization Assay
Using an expression vector plasmid introduced with human MCHR1 gene for expression in animal cells, human MCHR1 gene was introduced into CHO cells (CHO dhfr^−) by Lipofectamine LTX (Invitrogen). The cells were cultured in selection MEMα medium [445 mL of MEMα medium without nucleic acid and added with 5 mL of Penicillin-Streptomycin (Invitrogen) and 50 mL of dialyzed fetal bovine serum]. Colony 24 clones grown in the selection medium, which were human MCHR1 gene-expressing CHO cell candidates, were selected. […] An integrated dispensing function fluorometer (CellLux, PerkinElmer) was used for Ca^2+ mobilization assay. […] The medium was removed, and the cells were washed with phosphate buffered saline (PBS). A Ca^2+ indicator dye reagent (DOJINDO LABORATORIES, Ca screening no-wash kit Fluo4) was added at 100 μL/well, and the dye was allowed to penetrate into the cells for 30 min in an incubator at 5% CO2, 37° C. The plate was set on a plate reader. First, a test compound solution diluted with an assay buffer [10 mM HEPES (pH 7.4), 1× assay buffer containing 0.1% BSA (DOJINDO LABORATORIES, attached to Ca screening no-wash kit Fluo4)] or DMSO solution was added at 50 μL/well, and then ligand MCH (4-19) peptide (final concentration 2 nM) diluted with assay buffer or DMSO was added at 50 μL/well, during which changes in intracellular fluorescence were measured at 2 second intervals.

[1] = biological target: T2, human MCH receptor 1 (MCHR1) (Homo sapiens, UniProt Q99705); assay: Human MCH receptor 1 (MCHR1) competitive inhibitory activity using binding assay; settings: test compound 0.1 μM; [125I]-MCH (4-19); human MCHR1-expressing CHO cellular membrane fraction; read-out: Binding inhibition rate % (0.1 μM)
T2 construct: expressed in transfected cells; host or cells: CHO cell clone 57 (described in WO01/82925); membrane fraction
Protocol: Determination of Human MCH Receptor 1 (MCHR1) Competitive Inhibitory Activity of Test Compound Using Binding Assay
1. Preparation of Membrane Fraction
In phosphate buffered saline (pH 7.4) supplemented with 5 mM EDTA (ethylenediaminetetraacetic acid) were respectively suspended human MCHR1-expressing CHO cells (1×10^8 cells) and centrifuged. Homogenate buffer (10 mL, 10 mM NaHCO3, 5 mM EDTA, pH 7.5, 0.5 mM PMSF (phenylmethylsulfonyl fluoride), 20 mg/L leupeptin, 4 mg/L E-64, 1 mg/L pepstatin A) was added to the pellets of the cells and, using Polytron Homogenizer, the mixture was homogenated. The supernatant obtained after centrifugation at 400×g for 10 min was further centrifuged at 100,000×g for 1 hr to give precipitate of the membrane fraction. The precipitate was suspended in 2 mL of assay buffer [20 mM Tris-HCl (pH 7.5), 5 mM EDTA, 0.5 mM PMSF, 20 mg/L leupeptin, 4 mg/L E-64, 1 mg/L pepstatin A]. The membrane fractions were suspended in assay buffer to a protein concentration of 2 mg/mL, and after dispensing, preserved at −80° C. and used upon thawing each time when in use.
The MCHR1 ligand binding inhibitory activity of the test compound was determined as follows.
The mixture was reacted with stirring at room temperature for 1 hr, and the plate was set on FilterMate Harvester (PerkinElmer). […] The glass filter plate was dried, MicroScint 0 (PerkinElmer) was added at 25 μL/well, and the resulting radioactivity was measured by TopCount liquid scintillation counter (PerkinElmer). The binding inhibition rate of the test compound was calculated by the following formula. Binding inhibition(%)=100−(radioactivity upon addition of test compound and hot MCH−radioactivity upon addition of cold MCH and hot MCH solution)/(radioactivity upon addition of DMSO solution and hot MCH−radioactivity upon addition of cold MCH and hot MCH solution)×100

T1 sequence (Q99705 whole entry): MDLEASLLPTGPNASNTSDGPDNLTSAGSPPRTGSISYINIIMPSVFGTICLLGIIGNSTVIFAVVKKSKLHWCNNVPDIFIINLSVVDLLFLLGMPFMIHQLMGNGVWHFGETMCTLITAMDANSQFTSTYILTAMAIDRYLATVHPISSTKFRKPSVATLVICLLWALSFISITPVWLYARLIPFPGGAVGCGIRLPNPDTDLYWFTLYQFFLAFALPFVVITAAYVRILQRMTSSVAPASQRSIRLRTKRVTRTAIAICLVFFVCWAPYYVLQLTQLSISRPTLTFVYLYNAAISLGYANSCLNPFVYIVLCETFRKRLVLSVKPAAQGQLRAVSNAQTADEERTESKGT
T2 sequence (Q99705 whole entry): as above

Compound | inhibition at 0.1 µM (human MCHR1) | inhibition at 0.1 µM [1]
CCn1nc2ccc(-n3ccc(OCc4ccc(Cl)cc4)cc3=O)cc2c1C [Example 2, 4-[(4-chlorobenzyl)oxy]-1-(2-ethyl-3-methyl-2H-indazol-5-yl)pyridin-2(1H)-one] | 73% | 43%
Cc1c2cc(-n3ccc(OCc4cccc(Cl)c4)cc3=O)ccc2nn1C [Example 12, 4-[(3-chlorobenzyl)oxy]-1-(2,3-dimethyl-2H-indazol-5-yl)pyridin-2(1H)-one] | 38% | 42%
Cc1c2cc(-n3ccc(OCc4ccc(C(F)(F)F)s4)cc3=O)ccc2nn1C [Example 10, 1-(2,3-dimethyl-2H-indazol-5-yl)-4-{[5-(trifluoromethyl)thiophen-2-yl]methoxy}pyridin-2(1H)-one] | 51% | 39%
Cc1c2cc(-n3ccc(OCc4ccccc4)cc3=O)ccc2nn1C1CC1 [Example 7, 4-(benzyloxy)-1-(2-cyclopropyl-3-methyl-2H-indazol-5-yl)pyridin-2(1H)-one] | 66% | 44%
Cc1c2cc(-n3ccc(OCc4ccc(Br)s4)cc3=O)ccc2nn1C [Example 27, 4-[(5-bromothiophen-2-yl)methoxy]-1-(2,3-dimethyl-2H-indazol-5-yl)pyridin-2(1H)-one] | 92% | 60%
Cc1c2cc(-n3ccc(OCc4cc(C(F)(F)F)cs4)cc3=O)ccc2nn1C1CC1 [Example 43, 1-(2-cyclopropyl-3-methyl-2H-indazol-5-yl)-4-{[4-(trifluoromethyl)thiophen-2-yl]methoxy}pyridin-2(1H)-one] | 72% | 71%
Cc1c2cc(-n3ccc(OCc4ccc(C(F)(F)F)s4)cc3=O)ccc2nn1C1CC1 [Example 45, 1-(2-cyclopropyl-3-methyl-2H-indazol-5-yl)-4-{[5-(trifluoromethyl)thiophen-2-yl]methoxy}pyridin-2(1H)-one] | 43% | 49%
Cc1c2cc(-n3ccc(OCc4ccc(Cl)cn4)cc3=O)ccc2nn1C1CC1 [Example 18, 4-[(5-chloropyridin-2-yl)methoxy]-1-(2-cyclopropyl-3-methyl-2H-indazol-5-yl)pyridin-2(1H)-one] | 63% | 45%
Cc1c2cc(-n3ccc(OCc4cc(C(F)(F)F)cs4)cc3=O)ccc2nn1C [Example 41, 1-(2,3-dimethyl-2H-indazol-5-yl)-4-{[4-(trifluoromethyl)thiophen-2-yl]methoxy}pyridin-2(1H)-one] | 70% | 55%
Cc1c2cc(-n3ccc(OCc4ccc(Br)cn4)cc3=O)ccc2nn1C1CC1 [Example 28, 4-[(5-bromopyridin-2-yl)methoxy]-1-(2-cyclopropyl-3-methyl-2H-indazol-5-yl)pyridin-2(1H)-one] | 93% | 68%
Cc1c2cc(-n3ccc(OCc4ccc(Br)cn4)cc3=O)ccc2nn1C [Example 23, 4-[(5-bromopyridin-2-yl)methoxy]-1-(2,3-dimethyl-2H-indazol-5-yl)pyridin-2(1H)-one] | 77% | 57%
Cc1c2cc(-n3ccc(OCc4ccc(F)cc4)cc3=O)ccc2nn1C [Example 42, 1-(2,3-dimethyl-2H-indazol-5-yl)-4-[(4-fluorobenzyl)oxy]pyridin-2(1H)-one] | 65% | 46%
Cc1c2cc(-n3ccc(OCc4ccc(Cl)s4)cc3=O)ccc2nn1C1CC1 [Example 8, 4-[(5-chlorothiophen-2-yl)methoxy]-1-(2-cyclopropyl-3-methyl-2H-indazol-5-yl)pyridin-2(1H)-one] | 55% | 68%
Cc1c2cc(-n3ccc(OCc4nc(Br)cs4)cc3=O)ccc2nn1C [Example 30, 4-[(4-bromo-1,3-thiazol-2-yl)methoxy]-1-(2,3-dimethyl-2H-indazol-5-yl)pyridin-2(1H)-one] | 89% | 34%
Cc1c2cc(-n3ccc(OCc4csc(C(F)(F)F)n4)cc3=O)ccc2nn1C [Example 39, 1-(2,3-dimethyl-2H-indazol-5-yl)-4-{[2-(trifluoromethyl)-1,3-thiazol-4-yl]methoxy}pyridin-2(1H)-one] | 71% | 33%
Cc1c2c(F)c(-n3ccc(OCc4ccc(Cl)cc4)cc3=O)ccc2nn1C [Example 32, 4-[(4-chlorobenzyl)oxy]-1-(4-fluoro-2,3-dimethyl-2H-indazol-5-yl)pyridin-2(1H)-one] | – | 54%
Cc1c2cc(-n3ccc(OCc4cc5ccccc5o4)cc3=O)ccc2nn1C [Example 16, 4-(1-benzofuran-2-ylmethoxy)-1-(2,3-dimethyl-2H-indazol-5-yl)pyridin-2(1H)-one] | 57% | 47%
CCn1nc2ccc(-n3ccc(OCc4nc(C(F)(F)F)cs4)cc3=O)cc2c1C [Example 36, 1-(2-ethyl-3-methyl-2H-indazol-5-yl)-4-{[4-(trifluoromethyl)-1,3-thiazol-2-yl]methoxy}pyridin-2(1H)-one] | 83% | 37%
Cc1c2cc(-n3ccc(OCc4nc(C(F)(F)F)cs4)cc3=O)ccc2nn1C1CC1 [Example 33, 1-(2-cyclopropyl-3-methyl-2H-indazol-5-yl)-4-{[4-(trifluoromethyl)-1,3-thiazol-2-yl]methoxy}pyridin-2(1H)-one] | 96% | 76%
Cc1c2cc(-n3ccc(OCc4nc(C(F)(F)F)cs4)cc3=O)ccc2nn1C [Example 38, 1-(2,3-dimethyl-2H-indazol-5-yl)-4-{[4-(trifluoromethyl)-1,3-thiazol-2-yl]methoxy}pyridin-2(1H)-one] | 78% | 45%
Cc1c2cc(-n3ccc(OCc4ccccc4)cc3=O)ccc2nn1C [Example 9, 4-(benzyloxy)-1-(2,3-dimethyl-2H-indazol-5-yl)pyridin-2(1H)-one] | – | 36%
CCCn1nc2ccc(-n3ccc(OCc4ccc(Cl)cc4)cc3=O)cc2c1C [Example 3, 4-[(4-chlorobenzyl)oxy]-1-(3-methyl-2-propyl-2H-indazol-5-yl)pyridin-2(1H)-one] | – | 37%
Cc1c2cc(-n3ccc(OCc4ccc(Cl)cc4)cc3=O)ccc2nn1C1CC1 [Example 5, 4-[(4-chlorobenzyl)oxy]-1-(2-cyclopropyl-3-methyl-2H-indazol-5-yl)pyridin-2(1H)-one] | 86% | 78%
